Results as given in patent US20240101570A1 (AMGEN INC., priority 2020, published 2024).

Assays:
HCT116 MTAP null cells = experiment: HCT116 MTAP null cell proliferation / viability (CellTiter-Glo, 6 days); assay type: cell-based; conditions: HCT116-MTAP null, 144 h, HCT116 MTAP null cells, 6 days, CellTiter-Glo; read-out: HCT-116 MTAP null IC50
Method in brief: (§1)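 CellTiter-Glo luminescence, 6-day exposure, RPMI 1640 + 10% FBS. Dosing: 1:3 series (8-9 pts, top 1 or 10 μM) or 1:2 series (22 pts, top 10 or 50 μM), DMSO control. IC50 = 50% of control via curve fit.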

HCT116 WT cells = experiment: HCT116 WT cell proliferation / viability (CellTiter-Glo, 6 days); assay type: cell-based; conditions: Homo sapiens, HCT-116, 144 h, HCT116 WT cells, 6 days, CellTiter-Glo; read-out: HCT-116 WT IC50
Method in brief: as §1

| Compound | IC50 (HCT116 MTAP null cells) | IC50 (HCT116 WT cells) |
| --- | --- | --- |
| CCOc1ccc(CN(CC(C)C)C(=O)c2cc3c4c(c(N)nc3cn2)COC4)nn1 [Example 672, 4-amino-N-((6-ethoxy-3-pyridazinyl)methyl)-N-(2-methylpropyl)-1,3-dihydrofuro[3,4-c][1,7]naphthyridine-8-carboxamide] | 145 nM | 7460 nM |
| C[C@H](c1ncccn1)N(Cc1ccc(Br)nn1)C(=O)c1cc2c3c(c(N)nc2cn1)COC3 [Example 673, 4-amino-N-((6-bromo-3-pyridazinyl)methyl)-N-((1R)-1-(2-pyrimidinyl)ethyl)-1,3-dihydrofuro[3,4-c][1,7]naphthyridine-8-carboxamide] | 110 nM | 3260 nM |
| Nc1nc2ccc(C(=O)N(Cc3ccc(Br)nn3)CC3CC3)cc2c2c1COC2 [Example 674, 4-amino-N-((6-bromo-3-pyridazinyl)methyl)-N-(cyclopropylmethyl)-1,3-dihydrofuro[3,4-c]quinoline-8-carboxamide] | 73 nM | 2580 nM |
| CC(C)N(Cc1ccc(C(F)(F)F)cn1)C(=O)c1cc2c3c(c(N)nc2cn1)COC3 [Example 675, 4-amino-N-(2-propanyl)-N-((5-(trifluoromethyl)-2-pyridinyl)methyl)-1,3-dihydrofuro[3,4-c][1,7]naphthyridine-8-carboxamide] | 66 nM | 12700 nM |
| C[C@H](c1ncccn1)N(Cc1ccc(Cl)nn1)C(=O)c1ccc2nc(N)c3c(c2c1)COC3 [Example 676, 4-amino-N-((6-chloro-3-pyridazinyl)methyl)-N-((1R)-1-(2-pyrimidinyl)ethyl)-1,3-dihydrofuro[3,4-c]quinoline-8-carboxamide] | 12 nM | 316 nM |
| Cc1nc(CN(C)C(=O)c2ccc3nc(N)c4c(c3c2)COC4)ccc1Br [Example 677, 4-amino-N-((5-bromo-6-methyl-2-pyridinyl)methyl)-N-methyl-1,3-dihydrofuro[3,4-c]quinoline-8-carboxamide] | 243 nM | > 10000 nM |
| CC(C)N(Cc1ccc(OC(F)(F)F)cn1)C(=O)c1ccc2nc(N)c3c(c2c1)COC3 [Example 678, 4-amino-N-(2-propanyl)-N-((5-(trifluoromethoxy)-2-pyridinyl)methyl)-1,3-dihydrofuro[3,4-c]quinoline-8-carboxamide] | 40 nM | 1180 nM |
| C[C@H](c1ncccn1)N(Cc1ccc(C#N)c(Cl)n1)C(=O)c1ccc2nc(N)c3c(c2c1)COC3 [Example 679, 4-amino-N-((6-chloro-5-cyano-2-pyridinyl)methyl)-N-((1R)-1-(2-pyrimidinyl)ethyl)-1,3-dihydrofuro[3,4-c]quinoline-8-carboxamide] | 5 nM | 108 nM |
| COC[C@@H](C)N(Cc1ccc(Br)nn1)C(=O)c1cc2c3c(c(N)nc2cn1)COC3 [Example 680, 4-amino-N-((6-bromo-3-pyridazinyl)methyl)-N-((2R)-1-methoxy-2-propanyl)-1,3-dihydrofuro[3,4-c][1,7]naphthyridine-8-carboxamide] | 91 nM | 2840 nM |
| COC[C@@H](C)N(Cc1ccc(Br)nn1)C(=O)c1cnc2nc(N)c3c(c2c1)COC3 [Example 681, 4-amino-N-((6-bromo-3-pyridazinyl)methyl)-N-((2R)-1-methoxy-2-propanyl)-1,3-dihydrofuro[3,4-c][1,8]naphthyridine-8-carboxamide] | 367 nM | 6490 nM |
| N#Cc1ccc(CN(CC2CC2)C(=O)c2cc3c4c(c(N)nc3cn2)COC4)nc1 [Example 682, 4-amino-N-((5-cyano-2-pyridinyl)methyl)-N-(cyclopropylmethyl)-1,3-dihydrofuro[3,4-c][1,7]naphthyridine-8-carboxamide] | 87 nM | 3400 nM |
| COc1ccc(CN(C(=O)c2cc3c4c(c(N)nc3cn2)COC4)C(C)C)nc1Cl [Example 683, 4-amino-N-((6-chloro-5-methoxy-2-pyridinyl)methyl)-N-(2-propanyl)-1,3-dihydrofuro[3,4-c][1,7]naphthyridine-8-carboxamide] | 235 nM | > 10000 nM |
| CC(C)N(Cc1ccc(Br)nn1)C(=O)c1cc2c3c(c(N)nc2cn1)COC3 [Example 684, 4-amino-N-((6-bromo-3-pyridazinyl)methyl)-N-(2-propanyl)-1,3-dihydrofuro[3,4-c][1,7]naphthyridine-8-carboxamide] | 342 nM | > 10000 nM |
| COc1nc(CN(C(=O)c2cc3c4c(c(N)nc3cn2)COC4)C(C)C)ccc1Cl [Example 685, 4-amino-N-((5-chloro-6-methoxy-2-pyridinyl)methyl)-N-(2-propanyl)-1,3-dihydrofuro[3,4-c][1,7]naphthyridine-8-carboxamide] | 201 nM | > 10000 nM |

Continued, values first:

| IC50 (HCT116 MTAP null cells) | IC50 (HCT116 WT cells) | Compound |
| --- | --- | --- |
| 445 nM | 8800 nM | C[C@H](c1ncccn1)N(Cc1cc2c(cn1)OCCC2)C(=O)c1cc2c3c(c(N)nc2cn1)COC3 [Example 686, 4-amino-N-(3,4-dihydro-2H-pyrano[2,3-c]pyridin-6-ylmethyl)-N-((1R)-1-(2-pyrimidinyl)ethyl)-1,3-dihydrofuro[3,4-c][1,7]naphthyridine-8-carboxamide] |
| 81 nM | 3440 nM | Nc1nc2cnc(C(=O)N(Cc3ccc(C(F)(F)F)nn3)CC3CC3)cc2c2c1COC2 [Example 688, 4-amino-N-(cyclopropylmethyl)-N-((6-(trifluoromethyl)-3-pyridazinyl)methyl)-1,3-dihydrofuro[3,4-c][1,7]naphthyridine-8-carboxamide] |
| 96 nM | 2580 nM | Nc1nc2cnc(C(=O)N(Cc3ccc(C(F)(F)F)cn3)C34CC(C3)C4)cc2c2c1COC2 [Example 689, 4-amino-N-(bicyclo[1.1.1]pentan-1-yl)-N-((5-(trifluoromethyl)-2-pyridinyl)methyl)-1,3-dihydrofuro[3,4-c][1,7]naphthyridine-8-carboxamide] |
| 71 nM | 4170 nM | Nc1nc2cnc(C(=O)N(Cc3ccc(C(F)(F)F)cn3)c3cnn(C4CC4)c3)cc2c2c1COC2 [Example 690, 4-amino-N-(1-cyclopropyl-1H-pyrazol-4-yl)-N-((5-(trifluoromethyl)-2-pyridinyl)methyl)-1,3-dihydrofuro[3,4-c][1,7]naphthyridine-8-carboxamide] |
| 127 nM | 3880 nM | Cn1cc(N(Cc2ccc(C(F)F)cn2)C(=O)c2cc3c4c(c(N)nc3cn2)COC4)cn1 [Example 691, 4-amino-N-((5-(difluoromethyl)-2-pyridinyl)methyl)-N-(1-methyl-1H-pyrazol-4-yl)-1,3-dihydrofuro[3,4-c][1,7]naphthyridine-8-carboxamide] |
| 449 nM | > 10000 nM | CN(Cc1ccc(C(F)(F)F)cc1)C(=O)c1cc2c3c(c(N)nc2cn1)COC3 [Example 692, 4-amino-N-methyl-N-(4-(trifluoromethyl)benzyl)-1,3-dihydrofuro[3,4-c][1,7]naphthyridine-8-carboxamide] |
| 2020 nM | > 10000 nM | CN(Cc1ccc(C(F)(F)F)nc1)C(=O)c1cc2c3c(c(N)nc2cn1)COC3 [Example 693, 4-amino-N-methyl-N-((6-(trifluoromethyl)-3-pyridinyl)methyl)-1,3-dihydrofuro[3,4-c][1,7]naphthyridine-8-carboxamide] |
